B1: phosphotransferase protein IIA^Glc of E. coli (natural protein, UniProt P69783 1-169, looked up)
chain: MGLFDKLKSLVSDDKKDTGTIEIIAPLSGEIVNIEDVPDVVFAEKIVGDGIAIKPTGNKMVAPVDGTIGKIFETNHAFSIESDSGVELFVHFGIDTVELKGEGFKRIAEEGQRVKVGDTVIEFDLPLLEEKAKSTLTPVVISNMDEIKELIKLSGSVTVGETPVIRIKK

How the values were obtained:
MelBSt [1] = target: T1, MelBSt (Salmonella enterica, UniProt P30878); assay: isothermal titration calorimetry; format: binding; settings: purified in 0.01% MNG-3, 20 mM Tris-HCl pH 7.5, 100 mM NaCl, 10% glycerol, 25 °C
MelBSt [2] = target: T1, MelBSt; assay: Trp→D^2G FRET, displacement of bound D^2G; format: binding; settings: read-out: RSO membrane vesicles, 10 μM D^2G, 20 mM NaCl, KPi pH 7.5
MelBEc [3] = target: T2, MelBEc (Escherichia coli, UniProt P02921); assay: isothermal titration calorimetry; format: binding; settings: purified in 0.01% MNG-3, 20 mM Tris-HCl pH 7.5, 100 mM NaCl, 10% glycerol, 25 °C
MelBEc [4] = target: T2, MelBEc; assay: Trp→D^2G FRET, displacement of bound D^2G; format: binding; settings: read-out: RSO membrane vesicles, 10 μM D^2G, 20 mM NaCl, KPi pH 7.5
MelBSt [5] = target: MelBSt (Salmonella enterica, UniProt P30878, R295C); settings: RSO vesicles solubilized with MNG-3, 10 μM D^2G, 20 mM NaCl
[6] = target: WT melibiose permease of Escherichia coli (MelBEc) (Escherichia coli, UniProt P02921 1-473); assay: ITC
[7] = target: R141C mutant of the melibiose permease of Salmonella typhimurium (R141C MelBSt) (Salmonella typhimurium, UniProt P30878 1-476, R141C); assay: ITC

T2 sequence (P02921 2-473): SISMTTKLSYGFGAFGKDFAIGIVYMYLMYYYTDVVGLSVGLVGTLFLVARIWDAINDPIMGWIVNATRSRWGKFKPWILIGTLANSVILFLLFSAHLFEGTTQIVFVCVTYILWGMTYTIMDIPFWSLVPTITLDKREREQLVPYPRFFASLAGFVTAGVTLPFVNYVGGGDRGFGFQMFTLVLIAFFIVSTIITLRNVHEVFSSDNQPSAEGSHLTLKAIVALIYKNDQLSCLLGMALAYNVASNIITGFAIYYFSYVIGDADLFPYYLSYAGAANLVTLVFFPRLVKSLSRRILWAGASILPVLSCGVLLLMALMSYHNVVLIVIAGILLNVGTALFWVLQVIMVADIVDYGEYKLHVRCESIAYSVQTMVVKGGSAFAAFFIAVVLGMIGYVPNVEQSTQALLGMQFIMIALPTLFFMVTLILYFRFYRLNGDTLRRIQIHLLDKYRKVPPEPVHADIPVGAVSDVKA

Molecule	Kd (MelBSt [1])	IC50 (MelBSt [2])	Kd (MelBEc [3])	IC50 (MelBEc [4])	IC50 (MelBSt [5])	binding result [6]	Kd [7]
OC[C@H]1O[C@H](OC[C@H]2OC(O)[C@H](O)[C@@H](O)[C@@H]2O)[C@H](O)[C@@H](O)[C@H]1O (stereo partly shown) [melibiose]	2.51 ± 0.13 mM	2.42 ± 0.22 mM	1.28 ± 0.06 mM	0.66 ± 0.16 mM	5.49 ± 0.83 mM		
B1						binds	0.002 mM

Reference: article PMC4646067 (Biochemistry, 2015)
